The text below walks through data of patent publication US20100093536A1, “CONTROL OF GRASSY WEEDS WITH VINYLGLYCINES AND VINYLGLYCINE-PRODUCING ORGANISMS” (THE STATE OF OREGON ACTING BY AND THROUGH THE STATE BOARD …, priority 2008, published 2010).

Series [1] is described as follows: Solubility of GAF in organic solvents. In kind it is physicochemical. How it is done:
Further characterization of GAF described its size and solubility, as well as the stability of its activity over time and under varying temperature and pH conditions (see Banowetz et al., Biological Control, 50: 103-110, 2009; which is hereby incorporated by reference). […] GAF activity in culture filtrates stored at 4° C. diminishes over time, with 10% activity remaining after 17 months.
We have termed this compound a Germination Arrest Factor (GAF), and we have identified this compound as 2-amino-4-formylaminooxy-but-3-enoic acid (also called 2-amino-4-formylaminooxyvinylglycine). The presence of this compound in culture filtrates of Pseudomonas can be assessed by extraction and chromatography procedures described in Example 1. […] Moreover, GAF has particular chromatographic properties that allow it to be detected in the culture filtrates of GAF-producing organisms as a distinctive ninhydrin-staining band located at a particular position on thin-layer chromatography plates when the extraction and chromatography protocols specified here are followed. […] The presence of a DNA sequence that codes for an open reading frame that is distinctive for a particular putative formyl-transferase.

For series [2], the system named is Established seedlings. As to the kind of experiment: Sensitivity of established seedlings to GAF. The note with it: in vivo.
In series [3] the test system is Poa annua (annual bluegrass) seeds. As to the kind of experiment: Standard GAF Bioassay System (Standard Poa Bioassay), seed germination scored after 7 days. Set-up: key to GERMINATION SCORE IN THE POA BIOASSAY (±Standard Error of the Mean) / GERMINATION SCORE (±Standard Error of the Mean): germination score, 0 = no germination to 4.0 = first true leaf emerged. The note with it: for GERMINATION SCORE: purified GAF; for GAF-like activity in the Standard Poa Bioassay System, in words: pure compounds. In kind it is in vivo. How it is done:
The seed of Poa annua (or other test seeds) were surface-sterilized by placing two to five grams of seeds in a 50 ml glass beaker, covering the seeds with a 50% (v/v) solution of H2SO4, and stirring vigorously for 5 minutes. The seed/acid mixture was filtered through a Gooch crucible and repeatedly rinsed with tap water to remove residual acid. The seeds were then placed in a beaker and covered with bleach (Clorox®, NaOCl, 5.25%) containing 1% (v/v) polyoxethylene sorbitan monolaurate (Tween®-20). The seeds were stirred for 5 minutes and then repeatedly rinsed with sterile deionized water and placed in a sterile Petri dish. The seeds were used immediately while wet or dried (spread in a thin layer and allowed to dry under a laminar flow hood with the Petri dish lid ajar for 4 to 8 hours) to prevent premature germination.
Bioassays for GAF activity were performed with Poa annua (annual bluegrass) seeds unless otherwise indicated. For each concentration of each test solution, 200 μl aliquots of solution were distributed to each of three wells of a sterile Costar® forty-eight well tissue culture plate (Corning® Costar® Number 3548). Three surface-sterilized Poa annua seeds were aseptically transferred to each well and submerged in the liquid, providing a total of nine observations for each concentration of each solution tested. The lid of the tissue culture plate was sealed with Parafilm® and the plate was placed in a germinator at 20° C. (8 hour day length at a light intensity of 50 μmol/m^2/s, 16 hour dark period) for seven days. Germination was scored on the basis of the following four-point system: • Score 0: No visible signs of germination. • Score 0.5: Seed coat split but plumule and coleorhiza are not visible. • Score 1.0: Plumule and coleorhiza visible. Plumule chlorotic and shorter than length of seed. Root not yet visible. • Score 1.5: Plumule still shorter than length of seed, but root is clearly visible. • Score 2.0: Plumule approximately equal in length to the seed. Root elongated. • Score 2.5: Plumule obviously longer than length of seed. First true leaf still enclosed in coleoptile. • Score 3.0: First true leaf emerged from coleoptile and green. Emerged portion of the leaf is obviously shorter than the coleoptile. • Score 3.5: First true leaf emerged from coleoptile and green. Emerged portion of the leaf is approximately equal in length to the coleoptile. • Score 4.0: First true leaf emerged from coleoptile and green. Emerged portion of the leaf is obviously longer than the coleoptile.

Series [4] has as its system seeds of grassy weeds and cultivated grasses. As to the kind of experiment: Germination arrest / herbicidal activity against grassy weeds (general statements). The note with it: in vivo.
The subject of series [5] is seeds of cereals (wheat and barley) and dicots. Briefly: Germination of seeds of cereals and dicots in presence of GAF. Type of series: in vivo. The settings on record: compared with seeds of grass species.
For series [6] the following is noted: cited from earlier work.
The subject of series [7] is Poa annua seeds. As to the kind of experiment: Soil-based test for GAF activity, Poa annua only. In kind it is in vivo. The note with it: sprayed twice with 50 mL in 0.1% Tween 20, evaluated 12 days after first treatment. How it is done:
(§1) Soil-based tests for GAF activity were performed as follows: Woodburn sandy loam obtained from a Willamette Valley site was used in all soil-based experiments. The soil was dried for two days at 100° F. and screened through a ⅛-inch mesh prior to use. All flats were lined with black ground cloth. Small half-flats (25×25 cm) were filled with 1200 grams of soil. Larger flats (25×50 cm) were filled with 2500 grams of soil. The soil in the flats was fully saturated with water and left to drain in a greenhouse mist chamber for two days prior to seeding.
Soil-based tests involving only Poa annua (annual bluegrass) were conducted in half-flats. A frame covering ½- inch around the margins of the flat was placed on the soil surface, and the soil area within the frame was seeded with 0.3 grams of Poa annua seeds (leaving a ½-inch unseeded border). The seeds were sprayed lightly with distilled water and placed in a growth chamber set at 20° C. with a photoperiod consisting of 8-hour days (50 μEinsteins) and 16-hour nights. […] The treatments were evaluated and photographic records taken 12 days after the initial treatment (14 days from seeding). […]
The effect of AVG on germination of seeds of Poa annua also was determined in a soil-based system using the protocol previously described. […]
The effect of AOA on the germination of Poa annua also was determined in a soil-based system. […]

For series [8], the system named is Poa annua seeds. Briefly: Soil-based test with established perennial ryegrass seedlings: germination of Poa annua seeds. In kind it is in vivo. The settings on record: sprayed twice with 50 mL in 0.1% Tween 20, evaluated 12 days after first treatment. As for the experimental part:
as §1
(§2) Soil-based tests involving both Poa annua seeds and established perennial ryegrass (Lolium perenne) seedlings were conducted in full sized flats (25×50 cm). After preparation of the soil as described above, five rows of perennial ryegrass seed (0.19 grams seed/row) were planted parallel to the short axis of the flat. The flats were placed in a mist chamber in the greenhouse for one week, and then transferred to a greenhouse bench where they were watered once or twice daily (as needed) with a fogging nozzle for the next 13 days. The ryegrass seedlings were fertilized at the end of the first week on the greenhouse bench. […] The treatments were evaluated and photographic records taken 12 days after the initial treatment (14 days from seeding with Poa annua). […]

The test system of series [9] is established perennial ryegrass (Lolium perenne) seedlings. As to the kind of experiment: Soil-based test with established perennial ryegrass seedlings: tolerance of the ryegrass. Type of series: in vivo. The note with it: at a concentration that arrested germination of Poa annua seeds. As for the experimental part: as §1, §2
Where [10] appears, read: exposure limited to a few hours.

Entries after “also recorded” stand apart in the source; their conditions may differ.

`NC(/C=C/ONC=O)C(=O)O` (stereo not drawn) [GAF, 2-amino-4-formylaminooxy-but-3-enoic acid]: the “solubility in organic solvents” value in series [1] is reported as “insoluble or sparingly soluble in organic solvents; also recorded: insoluble in organic solvents that are immiscible in water”. Further, in [2], the “sensitivity of established seedlings to GAF” value is “little if any sensitivity”. Besides, in series [3] (GAF Conc. 2X (relative to culture filtrate), partially purified GAF, metal 0 μM), the “POA BIOASSAY SCORES (±Standard Error of the Mean)” value is 1.00 ± 0.00. Moreover, the “activity of GAF in arresting germination in the presence of copper ions” value in series [3] (appropriate concentrations of copper ions) is on record as “greatly reduced”. Besides, the “GERMINATION SCORE” value in [3] (pooled Sephadex G15 fractions, Undiluted Pooled Volume (100%)) was 1.00; in [3] (1.25% Pooled Volume Concentration), 1.92; in series [3] (2.5% Pooled Volume Concentration) it was 1.00; in series [3] (5% Pooled Volume Concentration), 1.00; in series [3] (10% Pooled Volume Concentration), 1.00. In addition, the “activity against grassy weeds, in words” value in series [4] is “irreversibly arrests the germination”. Also, the “germination of seeds of cereals (wheat and barley) and dicots” value in [5] is listed as “much less sensitive to GAF”. Also, the GAF activity remaining in series [6] (culture filtrates stored at 4° C., after 17 months) is 10%. Further, in series [6] (setting [10]), the “activity under basic as well as acidic conditions” value is “remains active”. Moreover, the “temperature at which GAF remains active” value in series [6] (setting [10]) is “up to 65 °C”.
On to `NCCOC=CC(N)C(=O)O` (stereo not drawn) [AVG, 2-amino-4-aminoethoxy-but-3-enoic acid, reference compound], for which, in series [7], the “effect on germination of seeds of Poa annua in a soil-based system” value is “arrest germination”. For the same compound, the “GERMINATION SCORE IN THE POA BIOASSAY (±Standard Error of the Mean)” value in series [3] (concentration tested 0.03 mM) turned out to be 2.3 ± 0.1; in [3] (concentration tested 0.1 mM), 1.3 ± 0.1; in [3] (concentration tested 0.3 mM), 1.0 ± 0.0; in series [3] (concentration tested 1.0 mM), 1.0 ± 0.0; in series [3] (concentration tested 3.0 mM) it was 1.0 ± 0.0; in [3] (concentration tested 10.0 mM), 1.0 ± 0.0. Besides, the “GERMINATION SCORE IN THE POA BIOASSAY (±Standard Error of the Mean)” value in [3] (concentration tested 30.0 mM) turned out to be 0.9 ± 0.1. The “GAF-like activity in the Standard Poa Bioassay System, in words” value in series [3] is given as “arrested the germination”. Moreover, the “germination of Poa annua seeds seeded between rows of established ryegrass” value in [8] is on record as “completely arrested germination”. The “effect on established perennial ryegrass seedlings” value in series [9] was “little if any effect”.
As to `NOCC(=O)O` [AOA, 2-Aminooxyacetic acid, reference compound], in series [7], the “effect on germination of seeds of Poa annua in a soil-based system” value was “arrested germination”. Besides, the “GERMINATION SCORE IN THE POA BIOASSAY (±Standard Error of the Mean)” value in [3] (concentration tested 0.03 mM) amounted to 2.5 ± 0.1; in [3] (concentration tested 0.1 mM), 1.7 ± 0.1; in [3] (concentration tested 0.3 mM) it was 1.2 ± 0.1; in series [3] (concentration tested 1.0 mM), 1.0 ± 0.0; in series [3] (concentration tested 3.0 mM), 1.0 ± 0.0; in series [3] (concentration tested 10.0 mM) it was 1.0 ± 0.0. Also, the “GERMINATION SCORE IN THE POA BIOASSAY (±Standard Error of the Mean)” value in series [3] (concentration tested 30.0 mM) worked out at 0.9 ± 0.1. In addition, the “GAF-like activity in the Standard Poa Bioassay System, in words” value in series [3] is on record as “arrested the germination”. Besides, in series [8], the “germination of Poa annua seeds seeded between rows of established ryegrass” value was “arrested as expected”. Moreover, the “effect on established perennial ryegrass seedlings” value in series [9] was “some damage was evident”.
